Assay results reported in US20080194620A1, “Use of Benzodiazepine Receptor Ligands For Combating Signs of Ageing” (L'OREAL, priority 2004, published 2008).

Experiments:
Assay type in all cases: cell-based
[1] = tested on: Normal human epidermal keratinocytes; test: Differentiation of keratinocytes: determination of transglutaminase K1 (TGK1) activity by radioassay
Procedure: (§1) Normal human epidermal keratinocytes are cultivated at 37° C. in keratinocyte-SFM medium (Gibco BRL 3701022) supplemented with EGF (epidermal growth factor) and pituitary extract, with or without calcium supplement (1.5 mM). After culture for 24 hours, the medium is replaced with medium containing the actives to be tested or reference substances. Culture is continued for 96 hours. The transglutaminase K1 (TGK1) activity is evaluated by radioassay, by measuring the covalent addition of tritiated putrescine to casein (acceptor protein) for 1 h 30 min at 37° C. The casein is precipitated with TCA (trichloroacetic acid) on a dry filter and then counted in liquid scintillation. The proteins in each sample are determined by means of a kit (BioRad 500-0116). Statistical analysis of the data is performed by analysis of variance (ANOVA) using Dunnett's multiple comparison test.
(§2) The molecule PK11195 (or 1-(2-chlorophenyl)-N-(1-methyl-propyl)-3-isoquinoline carboxamide), a specific inhibitor of the peripheral benzodiazepine receptor, was tested at respective concentrations of 10^−4 M and 10^−6 M. The active was added to the keratinocyte culture medium, containing calcium or not containing calcium. The effect of a medium alone containing 1.5 mM of calcium (pro-differentiation agent) was used as a positive control of differentiation. […]

[2] = tested on: Normal human epidermal keratinocytes; test: Cellular viability of keratinocytes in the TGK1 differentiation cultures; conditions: 10^−6 M; medium with calcium (1.5 mM); 96 h culture; control = 100%
Procedure: as §1, §2

[3] = tested on: Normal human epidermal keratinocytes; test: Synthesis of total epidermal glycosaminoglycans (incorporation of 3H-glucosamine); conditions: 1.5 mM, 72 h incubation
Procedure: Normal human epidermal keratinocytes are cultivated in SFM complete medium for 24 hours. The medium is then removed, and replaced with SFM medium without supplements containing the product PK11195 or the pharmacological reference. It is incubated for 72 h at 37° C. Tritiated glucosamine (D-[6-^3H]-glucosamine, Amersham TRK398 (1.3 Tbq/mmol, 35 Ci/mmol) is added for the last 24 hours of incubation. The glycosaminoglycans are extracted from the culture medium and from the deposited matrix, with a chaotropic buffer, then purified by ion-exchange chromatography. The radioactivity incorporated in the […] molecules (mostly GAGs) is counted by liquid scintillation. The results are expressed as percentage change in synthesis of the GAGs relative to the control.

Structure (SMILES)	TGK1 activity ([1]; 10^−6 M, medium with calcium (1.5 mM), 96 h culture, control = 100%, *p<0.05) [%]	decrease in TGK1 activity ([1]; medium with retinol 10^−6 M (anti-differentiation reference)) [%]	Cellular viability [2] [%]	Incorporation of 3H-glucosamine, CPM ([3]; control 10624 CPM) [CPM]	Incorporation of 3H-glucosamine, Percentage/control ([3]; p<0.01) [%]
CC1=C(/C=C/C(C)=C/C=C/C(C)=C/CO)C(C)(C)CCC1 [retinol]	56	−44	103	–	–
[Ca+2].[Cl-].[Cl-] [CaCl2]	–	–	–	16791	158
